Series [1] in a line: Selectivity index, ratio of CC50 for BHK21 cells to IC50 for Staphylococcus aureus ATCC 6538. To be noted: hamster, read-out: Ratio CC50/IC50. It is filed as toxicity.
A short description of series [2]: Selectivity index, ratio of CC50 for BHK21 cells to IC50 for Candida glabrata ATCC 90030. It counts as toxicity. The settings on record: hamster, read-out: Ratio CC50/IC50.
Series [3] has as its system Staphylococcus aureus. Nature of the series: Potency index, ratio of piplartine IC50 to test compound IC50 for Staphylococcus aureus ATCC 6538. It counts as functional.
In a further series the test system is Candida tropicalis. In words: Antifungal activity against Candida tropicalis ATCC 750 after 24 hrs by CLSI broth microdilution method. The settings on record: ATCC 750, 24 h. It counts as functional, organism-based.
Series [4] is described as follows: Cytotoxicity against BHK21 cells assessed as reduction in cell viability after 48 hrs by MTT assay. It counts as cell-based, Mesocricetus auratus, BHK-21. The settings on record: hamster. On the technique in general: Formazan colour is commonly taken as a measure of viable cells.
Another series has as its system Nakaseomyces glabratus. In words: Antifungal activity against Candida glabrata ATCC 90030 after 24 hrs by CLSI broth microdilution method. It is filed as functional, organism-based. The settings on record: ATCC 90030, 24 h. On the technique in general: In broth dilution the organism is exposed to a series of concentrations in liquid medium.
Series [5] can be described thus: Selectivity index, ratio of CC50 for BHK21 cells to IC50 for Candida tropicalis ATCC 750. The settings on record: hamster, read-out: Ratio CC50/IC50. It is filed as toxicity.
The nature of series [6]: Selectivity index, ratio of CC50 for BHK21 cells to IC50 for Candida albicans ATCC 10231. It counts as toxicity. To be noted: hamster, read-out: Ratio CC50/IC50.
Series [7] deals with Staphylococcus aureus. In words: Antibacterial activity against Staphylococcus aureus ATCC 6538 after 24 hrs by CLSI broth microdilution method. It counts as functional, organism-based. To be noted: ATCC 6538, 24 h.
The test system of a further series is Candida parapsilosis. In words: Antifungal activity against Candida parapsilosis ATCC 22019 after 24 hrs by CLSI broth microdilution method. It is filed as functional, organism-based. The settings on record: Lodderomyces parapsilosis, ATCC 22019, 24 h.
The test system of a further series is Candida albicans. In words: Antifungal activity against Candida albicans ATCC 10231 after 24 hrs by CLSI broth microdilution method. It is filed as functional, organism-based. The settings on record: ATCC 10231, 24 h.
Series [8] in a line: Selectivity index, ratio of CC50 for BHK21 cells to IC50 for Candida parapsilosis ATCC 22019. It is filed as toxicity. To be noted: hamster, read-out: Ratio CC50/IC50.

Here are results for one molecule from ChEMBL document CHEMBL4346712, “Research progress in the biological activities of 3,4,5-trimethoxycinnamic acid (TMCA) derivatives” (Eur J Med Chem, 2019).

Broadly, the IC50 is the point on the concentration scale where inhibition reaches its midpoint. Broadly, the CC50 is the concentration giving 50% cytotoxicity. On to `O=C(/C=C/c1ccccc1)NNC(=O)c1ccccc1`, for which the selectivity ratio in series [1] is 2.71; in series [2] it was 0.61; in [5], 0.61; in [6], 0.61; in series [8], 0.61. The “Ratio IC50” value with Staphylococcus aureus [3] was 3. Also, the IC50 in the series on Candida tropicalis came out at 376 µM; in the series with Nakaseomyces glabratus it was 376 µM; in the series on Staphylococcus aureus [7], 85.2 µM; in the series with Candida parapsilosis, 376 µM; in the series with Candida albicans, 376 µM. For the same molecule, in series [4], the CC50 at 48 h turned out to be 232 µM.
